From US5580860A, “Pharmaceutical composition containing 2-amino-6-chloropurine-9-β-D-2',3'-dideoxyribofuranoxside” (priority 1989, dated 1996)

How the values were obtained:
[1] = test system: production of reverse transcriptase (HIV); conditions: J. Med. Chem., 32, 1135 (1989), cited from earlier work
[2] = test system: cells; conditions: J. Med. Chem., 32, 1135 (1989), cited from earlier work
[3] = test system: HIV; conditions: J. Biol. Chem., 263, 5870 (1988); cited from earlier work
[4] = test system: cells; conditions: read-out: concentration range from which cytotoxicity appears; J. Biol. Chem., 263, 5870 (1988); cited from earlier work
[5] = Lipophilicity test, partition coefficient by shake-flask method; type: physicochemical; conditions: n-octanol / phosphate buffer pH 7.4, shake-flask, HPLC
Description: As a method for determining the extent of lipophilicity, it is a general rule to measure the partition coefficient (P) in water-n-octanol. Thus, the lipophilicity test of 2-amino-6-chloropurine-9-β-2',3'-dideoxyribofuranoside concerned with the invention was performed by the method of using partition coefficient P by shake-flask method (J. Pharm. Pharmacol., 39, 253 (1987)).
Namely, n-octanol and phosphate buffer (pH 7.4) were transferred into a separatory funnel and shaken for 3 hours with a shaker, which was then allowed to stand for 12 hours to separate respectively. Into 50 ml of n-octanol-saturated buffer thus obtained was dissolved 1 mg of sample (dried for 12 hours at 50° C. in a vacuum dryer) and 0.5 ml of this solution were taken as a sample for quantitative determination. Remaining 49.5 ml of n-octanol-saturated buffer and 49.5 ml of buffer-saturated n-octanol were transferred into a separatory funnel.
After shaking for 3 hours with a shaker, this was allowed to stand for 2 hours and then centrifuged (1500 rpm, 15 minutes). After gently removing the n-octanol layer, the sample for quantitative determination was taken.
The partition coefficient P is defined as follows:
Co: Concentration of sample in buffer before shaking
Cw: Concentration of sample in buffer after shaking

[6] = test system: HIV; conditions: compared with AZT; cited from earlier work
[7] = test system: AIDS virus (HIV) in ATH8 cells; experiment: Antivirus test (1), anti-HIV effect in ATH8 cells; type: cell-based; conditions: for IC100: read-out: complete inhibition concentration for HIV
Description: (§1) Namely, after pretreatment beforehand with polybrene (made by Sigma Co.), 2×10^5 ATH 8 cells were exposed to AIDS virus (HIV) for 45 minutes to infect (the number of HIV was made so as to be 2000 per ATH8 cell). Successively, the infected cells were suspended into every 1 ml of respective media containing interleukin 2 (IL-2) and being added with anti-HIV agent in various concentrations and into 1 ml of medium containing IL-2 alone and not containing anti-HIV agent at any rate.
(§2) These were cultured at 37° C. in a mixed gas comprising 5% carbon dioxide and 95% air.
(§3) The cells for reference were similarly prepared except allowing to infect with AIDS virus (HIV).
(§4) After 5 days, whole number of cells was counted by hemocytometer method based on the dyeing with trypan blue.

[8] = test system: p24 gag protein of HIV (H9 cells); experiment: Antivirus test (2), expression of p24 gag protein in HIV-infected H9 cells; type: cell-based
Description: Namely, HIV-infected H9 cells added with anti-HIV agent in various concentrations were cultured for 8 days and 9 days, respectively, to assay the rate (%) of the target H9 cells expressing p24 gag protein of HIV. Measurement was made by a murine monoclonal antibody (M26) method.

[9] = Cytotoxicity in the anti-HIV test (ATH8 cells); type: cell-based; conditions: human, ath8 cells; DMSO present (1% at 200 μM); attributed to influence of DMSO; read-out: concentration at which cytotoxicity appears
Description: as §1, §2, §3, §4

[10] = test system: ATH8 cells; experiment: Cytotoxicity in the anti-HIV test (ATH8 cells); type: cell-based; conditions: in words
Description: as §1, §2, §3, §4

[11] = Human immunodeficiency virus 1, ATH-8, 120 h, ATH8 cells, 5 days

Compound: Nc1nc(Cl)nc2c1ncn2[C@H]1C=C[C@@H](CO)O1 [2-chloro-2',3'-didehydro-2',3'-dideoxyadenosine]
- inhibition of the production of reverse transcriptase at 20 μM ([1]; 20 μM): 75%
- toxicity at a concentration over 20 μM ([2]; over 20 μM): the toxicity is so strong that the test cannot be performed

Compound: Nc1nc(Br)nc2c1ncn2[C@H]1CC[C@@H](CO)O1 [2-bromo-2',3'-dideoxyadenosine]
- concentration exhibiting HIV inhibition effect [3]: 1 to 10 µM
- MCC [4]: 1 to 10 µM

Compound: OC[C@@H]1CC[C@H](n2cnc3c(O)ncnc32)O1 [DDI, 2',3'-dideoxyinosine]
- logD [5]: -1.22
- anti-HIV effect in vitro [6]: higher anti-HIV effect in vitro than that of AZT

Compound: Nc1nc(Cl)nc2c1ncn2[C@H]1CC[C@@H](CO)O1 [2-chloro-2',3'-dideoxyadenosine]
- concentration exhibiting HIV inhibition effect [3]: 1 to 10 µM
- anti-HIV effect at 2 μM ([1]; 2 μM): no effect at all
- inhibition of the production of reverse transcriptase at 100 μM ([1]; 100 μM): 97%
- MCC [4]: 1 to 10 µM
- cytotoxicity at 100 μM ([2]; 100 μM): 23%

Compound: Nc1nc(F)nc2c1ncn2[C@H]1CC[C@@H](CO)O1 [2-fluoro-2',3'-dideoxyadenosine]
- concentration exhibiting HIV inhibition effect [3]: 1 to 10 µM
- MCC [4]: 1 to 10 µM

Compound: Nc1nc(Cl)c2ncn([C@H]3CC[C@@H](CO)O3)c2n1 [6-Cl-DDG, 2-amino-6-chloropurine-9-β-D-2',3'-dideoxyribofuranoside]
- anti-HIV effect compared with DDG ([7]; ATH8 cells, vs DDG): equal or higher anti-HIV effect compared with DDG
- IC100 [7, 11]: 5 µM
- minimal effective concentration ([7]; Human immunodeficiency virus 1, ATH-8, 120 h, ATH8 cells, 5 days, read-out: concentration exhibiting HIV inhibition effect): 2 µM
- anti-AIDS virus effect (anti-HIV effect) ([7]; in words): high anti-AIDS virus effect (anti-HIV effect)
- IC100 ([8]; Human immunodeficiency virus 1, 8th and 9th day, read-out: concentration almost completely inhibiting the expressing of p24): 10 µM
- minimal effective concentration ([8]; Human immunodeficiency virus 1, 8th and 9th day, read-out: concentration exhibiting inhibition effect on the expressing of p24 antigen): 3 µM
- anti-HIV effect compared with DDG ([8]; vs DDG): equal or higher anti-HIV effect compared with DDG
- MCC at 120 h [9]: > 200 µM
- cytotoxicity [10]: low cytotoxicity

Compound: Nc1ccn([C@H]2CC[C@@H](CO)O2)c(=O)n1 [DDC, 2',3'-dideoxycytidine]
- anti-HIV effect in vitro [6]: higher anti-HIV effect in vitro than that of AZT

Compound: Nc1nc2c(ncn2[C@H]2CC[C@@H](CO)O2)c(=O)[nH]1 [DDG, 2'3'-dideoxyguanosine]
- IC100 [7, 11]: 10 µM
- logD [5]: -1.06

Compound: Nc1ncnc2c1ncn2[C@H]1CC[C@@H](CO)O1 [DDA, 2',3'-dideoxyadenosine]
- anti-HIV effect in vitro [6]: higher anti-HIV effect in vitro than that of AZT
